Measured values reported in patent US20200316090A1, “TARGETED THERAPEUTICS” (MADRIGAL PHARMACEUTICALS, INC., priority 2012, published 2020).
Where two headings read alike, the source gives them in different places.

How the values were obtained:
[1] = Artificial membrane permeability assay (PAMPA)
Protocol: In order to test the ability SDC-TRAP molecules of the invention to enter cells, an artificial membrane permeability assay (“PAMPA”) was used. […] LC/MS was used in conjunction with PAMPA assays to determine the ability of the SDC-TRAP molecules of the invention to permeate cells.
Pre-coated PAMPA plates were warmed to room temperature for at least 30 minutes prior to adding assay components.
Stock solutions were prepared with the SDC-TRAP molecules to be tested. In order to make a working solution, either 50 μL of 100 μM Stock in DMSO+950 μL of PBS or 50 μL of 200 stock was added to 96 deep well plate, resulting in a 5 μM final concentration or a 10 μM final concentration, respectively. […] 200 μL of PBS was added into the corresponding wells of an acceptor PAMPA plates.
The acceptor plate was lowered onto the donor plate and allowed to incubate for five hours. After five hours, a 50 μL aliquot was removed from each well of each plate and added into a new 96 deep-well plate.
100 μL of methanol containing an internal standard was added to each aliquot and analyzed by LC/MS. The internal standard was 150 ng/ml SDC-TRAP-0002.
In order to calculate the permeability for each SDC-TRAP molecule and the control molecules, the following formula was used:
Permeability (in Unit of Cm/s):
[formula] • C0=initial compound concentration in donor well (mM) • CD (t)=compound concentration in donor well at time t. (mM) • CA (t)=compound concentration in acceptor well at time t. (mM) • VD=donor well volume=0.3 mL • VA=acceptor well volume=0.2 mL • A=filter area=0.3 cm^2 • t=incubation time=18000 s (5 h)
For the data presented in the table below, peak area was used in place of concentration in the formula above.

[2] = Tissue distribution of SDC-TRAP and degradation products in tumor-bearing mice (plasma, tumor, heart); assay type: in vivo, Female SCID Mouse (H1975)
Protocol: A 150 ng/mL solution of SDC-TRAP-0002 in methanol was prepared using an internal spiking solution (500 μg/mL SDC-TRAP-0002 in DMSO). Using the 10 mM stock solutions of the SDC-TRAP molecule and its Hsp90i binding moiety and effector moiety in DMSO, spiking solutions were prepared at 0.025, 0.05, 0.1, 0.5, 1, 5, 10, 50, 100, 250, and 500 μM in DMSO. 5 μL of each spiking solution was added to a 96-deep well plate.
Quality control standards were prepared from 5 μL of 0.1, 1, and 10 μM calibration standard spiking solution added in triplicate into 96-deep well plate and adding 50 μL of matrix (plasma or homogenized tumor).
To prepare test samples, test plasma was diluted as needed using blank plasma. Tumor samples were pulverized in liquid nitrogen, weighed, and homogenized in PBS at 5× volume to sample weight. 50 μL of unknown plasma or homogenized tumor sample was mixed with 5 μL of DMSO. The samples were extracted by precipitating calibration standards, QC standards, and unknown samples with 200 μL of internal standard solution. The samples were mixed by vortex at room temperature for approximately 1.5 minutes, then centrifuge at 2-8° C. 150 μL of supernatant was collected and 25 μL of water added. Samples were mixed and analyzed by LC-MS/MS.
Samples of plasma, heart and tumor were excised from a euthanized mouse, homogenized in PBS at 5 times tissue weight and diluted in 5 μL DMSO/50 μL sample. Prior to analysis, 55 μL samples and calibration standards were precipitated in 200 μL methanol in 96-well plates. Samples were mixed on a vortex mixer for 1.5 minutes at 1500 rpm at room temperature, then centrifuged at 4400 rpm for 10 minutes at 8° C. 150 μL of each supernatant was transferred to a well of a new 96-well plate, and 25 μL of water was added and mixed with the sample. […] For the analysis of samples from female SCID mice, a gradient of solvent A (water/0.1% formic acid) and B (acetonitrile/0.1% formic acid) was used as in Table A below.

[3] = Permeability (10^−6 cm/s), 5 h incubation, peak area used in place of concentration, first table
[4] = Permeability (cm/s), 5 h incubation, peak area used in place of concentration, first table
[5] = tissue distribution of SDC-TRAP-0056, 6 h
[6] = tissue distribution of SDC-TRAP-0056, 12 h
[7] = tissue distribution of SDC-TRAP-0056, 24 h
[8] = female, SCID, mouse, in vivo, read-out: Plasma Conc.
[9] = female, SCID, mouse, in vivo, read-out: Tumor/Plasma Ratio

Compound: CCc1c2c(nc3ccc(OC(=O)N4CCC[C@H]4C(=O)N4CCC(CCn5ccc6cc(-n7c(O)nnc7-c7cc(C(C)C)c(O)cc7O)ccc65)CC4)cc13)-c1cc3c(c(=O)n1C2)COC(=O)[C@]3(O)CC [SDC-TRAP-0210]
- Papp at 5 h [1]: 0.00899 ×10⁻⁶ cm/s
- Mass Retention (%) ([1]; 5 h incubation, first table): 34.8%
- Mass Retention (%) ([1]; same protocol, second table): 72.2%
- Permeability (10^−6 cm/s) ([1]; same protocol, second table): 0.00899 10^−6 cm/s

Compound: CC(C)c1cc(-c2nnc(C(=O)NCCCCCS(N)(=O)=O)n2-c2ccc(CN3CCOCC3)cc2)c(O)cc1O [SDC-TRAP-0232, 5-(2,4-dihydroxy-5-isopropylphenyl)-4-(4-(morpholinomethyl)phenyl)-N-(5-sulfamoylpentyl)-4H-1,2,4-triazole-3-carboxamide]
- Mass Retention (%) ([1]; 5 h incubation, first table): 21.0%
- Papp at 5 h [1, 3]: 0.00689 ×10⁻⁶ cm/s
- Papp at 5 h [1, 4]: 0.00689 ×10⁻⁶ cm/s

Compound: CCc1c2c(nc3ccc(O)cc13)-c1cc3c(c(=O)n1C2)COC(=O)C3(CC)OC(=O)CN1CCN(c2ccc(-n3c(O)nnc3-c3cc(C(C)C)c(O)cc3O)cc2)CC1 (stereo not shown) [SDC-TRAP-0056, 4,11-diethyl-9-hydroxy-3,14-dioxo-3,4,12,14-tetrahydro-1H-pyrano[3′,4′:6,7]indolizino[1,2-b]quinolin-4-yl 2-(4-(4-(3-(2,4-dihydroxy-5-isopropylphenyl)-5-hydroxy-4H-1,2,4-triazol-4-yl)phenyl)piperazin-1-yl)acetate]
- Kp ([2]; female, SCID, mouse, in vivo, tissue distribution of SDC-TRAP-0056, 6 h, read-out: Tumor/Plasma Ratio): 0.844
- Kp ([2]; female, SCID, mouse, in vivo, tissue distribution of SDC-TRAP-0056, 12 h, read-out: Tumor/Plasma Ratio): 40.3
- Kp ([2]; female, SCID, mouse, in vivo, tissue distribution of SDC-TRAP-0056, 24 h, read-out: Tumor/Plasma Ratio): 40.3
- Kp ([2]; female, SCID, mouse, in vivo, tissue distribution of SDC-TRAP-0056, […], read-out: Tumor/Plasma Ratio): 0.0193
- Plasma Conc. [2, 5]: 5880 nM
- Tumor Conc. [2, 5]: 4.97 nmol/g of tissue
- Plasma Conc. [2, 6]: 54.2 nM
- Tumor Conc. [2, 6]: 2.19 nmol/g of tissue
- Plasma Conc. [2, 7]: 54.2 nM
- Tumor Conc. [2, 7]: 2.19 nmol/g of tissue
- Tumor Conc. ([2]; tissue distribution of SDC-TRAP-0056, 48 h): 0.188 nmol/g of tissue

Compound: CCNC(=O)c1nnc(-c2cc(C(C)C)c(O)cc2O)n1-c1ccc(C(=O)N2CCN(c3cc(C)c(OC(=O)Nc4cccc5c4CN(C4CCC(=O)NC4=O)C5=O)c(C)c3)CC2)cc1 (stereo not shown) [SDC-TRAP-0178, 4-(4-(4-(3-(2,4-dihydroxy-5-isopropylphenyl)-5-(ethylcarbamoyl)-4H-1,2,4-triazol-4-yl)benzoyl)piperazin-1-yl)-2,6-dimethylphenyl (2-(2,6-dioxopiperidin-3-yl)-1-oxoisoindolin-4-yl)carbamate]
- concentration at 1 h [2, 8]: 217000 nM
- concentration at 6 h [2, 8]: 4510 nM
- concentration at 24 h [2, 8]: 28 nM
- concentration at 48 h [2, 8]: 241 nM
- Kp at 1 h [2, 9]: 1.59
- Kp at 6 h [2, 9]: 100
- Kp at 24 h [2, 9]: 100
- Kp at […] [2, 9]: 0.0179

Compound: CCNC(=O)c1nnc(-c2cc(C(C)C)c(O)cc2O)n1-c1ccc2c(ccn2CCC2CCN(C(=O)O[C@]3(CC)C(=O)OCc4c3cc3n(c4=O)Cc4c-3nc3ccc(O)cc3c4CC)CC2)c1 [SDC-TRAP-0208, (S)-4,11-diethyl-9-hydroxy-3,14-dioxo-3,4,12,14-tetrahydro-1H-pyrano[3′,4′:6,7]indolizino[1,2-b]quinolin-4-yl 4-(2-(5-(3-(2,4-dihydroxy-5-isopropylphenyl)-5-(ethylcarbamoyl)-4H-1,2,4-triazol-4-yl)-1H-indol-1-yl)ethyl)piperidine-1-carboxylate]
- Mass Retention (%) ([1]; same protocol, second table): 25.0%

Compound: CCNC(=O)c1nnc(-c2cc(C(C)C)c(O)cc2O)n1-c1ccc2c(c1)CN(Cc1cc(OC)c(OC(=O)Nc3cccc4c3CN(C3CCC(=O)NC3=O)C4=O)c(OC)c1)C2 (stereo not shown) [SDC-TRAP-0196, 4-((5-(3-(2,4-dihydroxy-5-isopropylphenyl)-5-(ethylcarbamoyl)-4H-1,2,4-triazol-4-yl)isoindolin-2-yl)methyl)-2,6-dimethoxyphenyl (2-(2,6-dioxopiperidin-3-yl)-1-oxoisoindolin-4-yl)carbamate]
- Mass Retention (%) ([1]; 5 h incubation, first table): 22.3%

Compound: CCc1c2c(nc3ccc(O)cc13)-c1cc3c(c(=O)n1C2)COC(=O)[C@@]3(CC)OC(=O)N1CCC(CCn2ccc3cc(-n4c(O)nnc4-c4cc(C(C)C)c(O)cc4O)ccc32)CC1 [SDC-TRAP-0064, (S)-4,11-diethyl-9-hydroxy-3,14-dioxo-3,4,12,14-tetrahydro-1H-pyrano[3′,4′:6,7]indolizino[1,2-b]quinolin-4-yl 4-(2-(5-(3-(2,4-dihydroxy-5-isopropylphenyl)-5-hydroxy-4H-1,2,4-triazol-4-yl)-1H-indol-1-yl)ethyl)piperidine-1-carboxylate]
- Mass Retention (%) ([1]; same protocol, second table): 48.4%

Compound: CCNC(=O)c1nnc(-c2cc(C(C)C)c(O)cc2O)n1-c1ccc2c(ccn2CCC2CCN(C(=O)Oc3ccc4nc5c(c(CC)c4c3)Cn3c-5cc4c(c3=O)COC(=O)[C@]4(O)CC)CC2)c1 [SDC-TRAP-0205, (S)-4,11-diethyl-4-hydroxy-3,14-dioxo-3,4,12,14-tetrahydro-1H-pyrano[3′,4′:6,7]indolizino[1,2-b]quinolin-9-yl 4-(2-(5-(3-(2,4-dihydroxy-5-isopropylphenyl)-5-(ethylcarbamoyl)-4H-1,2,4-triazol-4-yl)-1H-indol-1-yl)ethyl)piperidine-1-carboxylate]
- Mass Retention (%) ([1]; same protocol, second table): 10.9%

Compound: COc1cccc2c1C(=O)c1c(O)c3c(c(O)c1C2=O)C[C@@](O)(C(=O)CO)C[C@@H]3O[C@H]1C[C@H](N)[C@H](O)[C@H](C)O1 [Doxorubicin, doxorubicin, reference compound]
- Mass Retention (%) ([1]; 5 h incubation, first table): 21.0%
- Papp at 5 h [1, 3]: 0.0033 ×10⁻⁶ cm/s
- Papp at 5 h [1, 4]: 0.0033 ×10⁻⁶ cm/s

Compound: CCNC(=O)c1nnc(-c2cc(C(C)C)c(O)cc2O)n1-c1ccc(CN2CCC(C(=O)N3CCN(c4cc(C)c(OC(=O)Nc5cccc6c5CN(C5CCC(=O)NC5=O)C6=O)c(C)c4)CC3)CC2)cc1 (stereo not shown) [SDC-TRAP-0195, 4-(4-(1-(4-(3-(2,4-dihydroxy-5-isopropylphenyl)-5-(ethylcarbamoyl)-4H-1,2,4-triazol-4-yl)benzyl)piperidine-4-carbonyl)piperazin-1-yl)-2,6-dimethylphenyl (2-(2,6-dioxopiperidin-3-yl)-1-oxoisoindolin-4-yl)carbamate]
- Mass Retention (%) ([1]; 5 h incubation, first table): 27.1%

Compound: CCNC(=O)c1nnc(-c2cc(C(C)C)c(O)cc2O)n1-c1ccc(OC2CCN(c3cnc(C(=O)N[C@H]4C[C@H](O[C@H]5C[C@](O)(C(=O)CO)Cc6c(O)c7c(c(O)c65)C(=O)c5c(OC)cccc5C7=O)O[C@@H](C)[C@H]4O)cn3)CC2)cc1 [SDC-TRAP-0200, 5-(4-(4-(3-(2,4-dihydroxy-5-isopropylphenyl)-5-(ethylcarbamoyl)-4H-1,2,4-triazol-4-yl)phenoxy)piperidin-1-yl)-N-((2S,3S,4S,6R)-3-hydroxy-2-methyl-6-(((1S,3S)-3,5,12-trihydroxy-3-(2-hydroxyacetyl)-10-methoxy-6,11-dioxo-1,2,3,4,6,11-hexahydrotetracen-1-yl)oxy)tetrahydro-2H-pyran-4-yl)pyrazine-2-carboxamide]
- Mass Retention (%) ([1]; same protocol, second table): 10.6%

Compound: CC(C)c1cc(-c2nnc(O)n2-c2ccc(CN3CCN(C(=O)CCn4cc(F)c(=O)[nH]c4=O)CC3)cc2)c(O)cc1O [SDC-TRAP-0049, 1-(3-(4-(4-(3-(2,4-dihydroxy-5-isopropylphenyl)-5-hydroxy-4H-1,2,4-triazol-4-yl)benzyl)piperazin-1-yl)-3-oxopropyl)-5-fluoropyrimidine-2,4 (1H,3H)-dione]
- Mass Retention (%) ([1]; 5 h incubation, first table): 14.1%
- Papp at 5 h [1, 3]: 0.0124 ×10⁻⁶ cm/s
- Papp at 5 h [1, 4]: 0.0124 ×10⁻⁶ cm/s

Compound: CC(=O)O[C@@]12CO[C@@H]1C[C@H](O)[C@@]1(C)C(=O)[C@H](O)C3=C(C)[C@@H](OC(=O)[C@H](O)[C@@H](NC(=O)OC(C)(C)C)c4ccccc4)C[C@@](O)([C@@H](OC(=O)c4ccccc4)[C@H]21)C3(C)C [Docetaxel, docetaxel, reference compound]
- Mass Retention (%) ([1]; 5 h incubation, first table): 17.6%
- Papp at 5 h [1, 3]: 0.05 ×10⁻⁶ cm/s
- Papp at 5 h [1, 4]: 0.05 ×10⁻⁶ cm/s

Compound: Cn1c(=O)c2c(ncn2C)n(C)c1=O [Caffeine]
- Mass Retention (%) ([1]; 5 h incubation, first table): 20.8%
- Papp at 5 h [1, 3]: 11.7 ×10⁻⁶ cm/s
- Papp at 5 h ([1]; Permeability (10^−6 cm/s), same protocol, second table): 14.3 ×10⁻⁶ cm/s
- Papp at 5 h [1, 4]: 11.7 ×10⁻⁶ cm/s
- Papp at 5 h ([1]; Permeability (cm/s), same protocol, second table): 14.3 ×10⁻⁶ cm/s
- Mass Retention (%) ([1]; same protocol, second table): −0.11%

Compound: CC(C)c1cc(-c2nnc(O)n2-c2ccc3c(ccn3CCOCCNC(=O)CCn3cc(F)c(=O)[nH]c3=O)c2)c(O)cc1O [SDC-TRAP-0048, N-(2-(2-(5-(3-(2,4-dihydroxy-5-isopropylphenyl)-5-hydroxy-4H-1,2,4-triazol-4-yl)-1H-indol-1-yl)ethoxy)ethyl)-3-(5-fluoro-2,4-dioxo-3,4-dihydropyrimidin-1 (2H)-yl)propanamide]
- Mass Retention (%) ([1]; 5 h incubation, first table): 10.8%
- Papp at 5 h [1, 3]: 0.0283 ×10⁻⁶ cm/s
- Papp at 5 h [1, 4]: 0.0283 ×10⁻⁶ cm/s

Compound: COc1ccc(-c2cnoc2-c2cc(OC)c(OC)c(OC)c2)cc1OC(=O)N1CCN(Cc2ccc(-n3c(O)nnc3-c3cc(C(C)C)c(O)cc3O)cc2)CC1 [SDC-TRAP-0098, 2-Methoxy-5-(5-(3,4,5-trimethoxyphenyl)isoxazol-4-yl)phenyl-4-(4-(3-(2,4-dihydroxy-5-isopropylphenyl)-5-hydroxy-4H-1,2,4-triazol-4-yl)benzyl) piperazine-1-carboxylate]
- Tumor Conc. ([2]; tissue distribution of SDC-TRAP-0098, 1 h): 0.250 nmol/g of tissue
- Tumor Conc. ([2]; tissue distribution of SDC-TRAP-0098, 6 h): 0.0122 nmol/g of tissue
- Tumor Conc. ([2]; tissue distribution of SDC-TRAP-0098, 24 h): BQL
- Tumor Conc. ([2]; tissue distribution of SDC-TRAP-0098, 48 h): BQL

Compound: CC(C)c1cc(-c2nnc(O)n2-c2ccc(CN3CCN(C(=O)Oc4ccc(COC(=O)Nc5cccc6c5CN(C5CCC(=O)NC5=O)C6=O)cc4)CC3)c(F)c2)c(O)cc1O (stereo not shown) [SDC-TRAP-0171, 4-((((2-(2,6-dioxopiperidin-3-yl)-1-oxoisoindolin-4-yl)carbamoyl)oxy)methyl)phenyl-4-(4-(3-(2,4-dihydroxy-5-isopropylphenyl)-5-hydroxy-4H-1,2,4-triazol-4-yl)-2-fluorobenzyl)piperazine-1-carboxylate]
- Kp at 6 h [2, 9]: 407
